In patent publication US5869675A, “Lactacystin derivatives” (The Kitasato Institute, priority 1994, dated 1999):
Where two headings read alike, the source gives them in different places.

How the values were obtained:
[1] = tested on: Neuro 2A cells; assay: Activity of neuritogenesis (bipolar outgrowth of neurites) in Neuro 2A cells, minimum effective dose; format: cell-based, mouse; conditions: for minimal effective concentration: Mus musculus, N2a, read-out: Minimum effective dose (A)
Procedure: (§1) Morphological changes of Neuro 2A cells are observed according to the method of Baglioni et al. [J. Biol. Chem., 266: 18620 (1991)].
Neuro 2A cells were plated at a density of 1×10^4 cells/cm^2 in a 24-hole plate, and cultured in MEM-H with 10% FBS.

[2] = tested on: Neuro 2A cells; assay: Selective toxicity (ratio of cytotoxicity/minimum effective dose); format: cell-based, mouse
Description: 2. No specific test method for selective toxicity of the compounds is known, therefore the selective toxicity is defined as the ratio of cytotoxicity/minimum effective dose.

[3] = Cytotoxic action on Neuro 2A cells; format: cell-based; conditions: mouse, no attached cells observed in more than 2/3 of the whole cells, read-out: Cytotoxicity (B)
Procedure: as §1
Neuro 2A cells were plated at a density of 1×10^4 cells/cm^2 in a 24-hole plate, and cultured in MEM-H with 10% FBS. On the next day, lactacystin or lactacystin derivatives were added at the concentration of 0.05-100 μM, and morphological changes of the cells with time were observed by phase contrast microscopy.

[4] = tested on: intracelluar cAMP level in Neuro 2A; assay: Transient increase in the intracellular cAMP level in mouse neuroblastoma cell line Neuro 2A; format: cell-based
[5] = cited from earlier work
[6] = Neuro 2A cells, concentration in which approximately 20% of whole cells showed bipolar outgrowth of neurites

Q: Which results are given for COC(=O)[C@]1([C@@H](O)C(C)C)NC(=O)[C@H](C)[C@@H]1O [Example 1, .tau.-lactam methyl ester]?
A: minimal effective concentration [1, 6]: 1.56 µM; Selective toxicity (B/A) [2]: 8; MCC [3]: 12.5 µM

Q: With CC(C)[C@H](O)[C@@]1(C(=O)SCCC(=O)O)NC(=O)[C@H](C)[C@@H]1O [Example 2, des-N-acetylaminolactacystin] as the compound, how does the minimal effective concentration [1, 6] read?
A: The minimal effective concentration was 0.2 µM.

Q: And the “Selective toxicity (B/A)” value [2]?
A: The value was 8.

Q: And the MCC [3]?
A: Its MCC is 1.56 µM.

Q: Which minimal effective concentration [1, 6] does the source give for CCOC(=O)CCSC(=O)[C@]1([C@@H](O)C(C)C)NC(=O)[C@H](C)[C@@H]1O [Example 3, des-N-acetylaminolactacystin ethyl ester] here?
A: Its minimal effective concentration is 0.2 µM.

Q: And the “Selective toxicity (B/A)” value [2]?
A: The value was 16.

Q: And the MCC [3]?
A: The MCC was 3.12 µM.

Q: With CC(C)[C@H](O)[C@@]1(C(=O)SCCN)NC(=O)[C@H](C)[C@@H]1O [Example 4, des-N-acetyldescarboxylactacystin] as the compound, how does the minimal effective concentration [1, 6] read?
A: Its minimal effective concentration is 3.12 µM.

Q: And the “Selective toxicity (B/A)” value [2]?
A: The value was 8.

Q: What about the MCC [3] of the same compound?
A: The MCC was 25 µM.

Q: For COC(=O)[C@H](CSC(=O)[C@]1([C@@H](O)C(C)C)NC(=O)[C@H](C)[C@@H]1O)NC(C)=O [Example 5, lactacystin methyl ester], which minimal effective concentration [1, 6] is on record?
A: The minimal effective concentration was 0.78 µM.

Q: And the “Selective toxicity (B/A)” value [2]?
A: The value was 8.

Q: And the MCC [3]?
A: The MCC was 6.25 µM.

Q: What does the source list for C=CCOC(=O)[C@H](CSC(=O)[C@]1([C@@H](O)C(C)C)NC(=O)[C@H](C)[C@@H]1O)NC(C)=O [Example 6, lactacystin allyl ester]?
A: minimal effective concentration [1, 6]: 0.2 µM; Selective toxicity (B/A) [2]: 31; MCC [3]: 6.25 µM

Q: With CCSC(=O)[C@]1([C@@H](O)C(C)C)NC(=O)[C@H](C)[C@@H]1O [Example 7, 3-hydroxy-2-(1-hydroxy-2-methylpropyl)-4-methyl-5-oxo-2-pyrrolidine-ethanethiocarboxylate] as the compound, how does the minimal effective concentration [1, 6] read?
A: The minimal effective concentration was 0.2 µM.

Q: And the “Selective toxicity (B/A)” value [2]?
A: The value was 8.

Q: And the MCC [3]?
A: The MCC was 1.56 µM.

Q: For CCCSC(=O)[C@]1([C@@H](O)C(C)C)NC(=O)[C@H](C)[C@@H]1O [Example 8], which minimal effective concentration [1, 6] is on record?
A: The minimal effective concentration was 0.2 µM.

Q: What about the “Selective toxicity (B/A)” value [2] of the same compound?
A: The value was 16.

Q: And the MCC [3]?
A: Its MCC is 3.12 µM.

Q: For CC(C)SC(=O)[C@]1([C@@H](O)C(C)C)NC(=O)[C@H](C)[C@@H]1O [Example 9, 3-hydroxy-2-(1-hydroxy-2-methylpropyl)-4-methyl-5-oxo-2-pyrrolidine-iso-propanethiocarboxylate], which minimal effective concentration [1, 6] is on record?
A: The minimal effective concentration was 0.4 µM.

Q: What about the “Selective toxicity (B/A)” value [2] of the same compound?
A: The value was 31.

Q: And the MCC [3]?
A: Its MCC is 12.5 µM.

Q: Which minimal effective concentration [1, 6] does the source give for CCCCSC(=O)[C@]1([C@@H](O)C(C)C)NC(=O)[C@H](C)[C@@H]1O [Example 10, 3-hydroxy-2-(1-hydroxy-2-methylpropyl)-4-methyl-5-oxo-2-pyrrolidine-butanethiocarboxylate] here?
A: Its minimal effective concentration is 0.4 µM.

Q: What about the “Selective toxicity (B/A)” value [2] of the same compound?
A: Its value is 31.

Q: And the MCC [3]?
A: Its MCC is 12.5 µM.

Q: Which results are given for CCC(C)SC(=O)[C@]1([C@@H](O)C(C)C)NC(=O)[C@H](C)[C@@H]1O (stereo partly shown) [Example 11, 3-hydroxy-2-(1-hydroxy-2-methylpropyl)-4-methyl-5-oxo-2-pyrrolidine-1-methyl-1-propanethiocarboxylate]?
A: minimal effective concentration [1, 6]: 0.4 µM; Selective toxicity (B/A) [2]: 31; MCC [3]: 12.5 µM

Q: For CCCCCSC(=O)[C@]1([C@@H](O)C(C)C)NC(=O)[C@H](C)[C@@H]1O [Example 12, 3-hydroxy-2-(1-hydroxy-2-methylpropyl)-4-methyl-5-oxo-2-pyrrolidine-1-pentanethiocarboxylate], which minimal effective concentration [1, 6] is on record?
A: Its minimal effective concentration is 0.8 µM.

Q: And the “Selective toxicity (B/A)” value [2]?
A: Its value is 16.

Q: And the MCC [3]?
A: The MCC was 12.5 µM.

Q: Which results are given for CC(C)[C@H](O)[C@@]1(C(=O)Sc2ccccc2)NC(=O)[C@H](C)[C@@H]1O [Example 13, 3-hydroxy-2-(1-hydroxy-2-methylpropyl)-4-methyl-5-oxo-2-pyrrolidine-phenythiocarboxylate]?
A: minimal effective concentration [1]: 0.8 µM; Selective toxicity (B/A) [2]: 16; MCC [3]: 12.5 µM

Q: Which minimal effective concentration [1, 6] does the source give for CC(C)[C@H](O)[C@@]1(C(=O)SCCO)NC(=O)[C@H](C)[C@@H]1O [Example 14, 3-hydroxy-2-(1-hydroxy-2-methylpropyl)-4-methyl-5-oxo-2-pyrrolidine-2-hydroxyethanethiocarboxylate] here?
A: The minimal effective concentration was 3.12 µM.

Q: And the “Selective toxicity (B/A)” value [2]?
A: Its value is 8.

Q: What about the MCC [3] of the same compound?
A: The MCC was 25 µM.

Q: With CC(C)[C@H](O)[C@@]1(C(=O)SCCCO)NC(=O)[C@H](C)[C@@H]1O [Example 15, 3-hydroxy-2-(1-hydroxy-2-methylpropyl)-4-methyl-5-oxo-2-pyrrolidine-3-hydroxypropanethiocarboxylate] as the compound, how does the minimal effective concentration [1, 6] read?
A: Its minimal effective concentration is 0.4 µM.

Q: What about the “Selective toxicity (B/A)” value [2] of the same compound?
A: The value was 31.

Q: What about the MCC [3] of the same compound?
A: Its MCC is 12.5 µM.

Q: For CC(C)[C@H](O)[C@@]1(C(=O)Sc2ccc(O)cc2)NC(=O)[C@H](C)[C@@H]1O [Example 16, 3-hydroxy-2-(1-hydroxy-2-methylpropyl)-4-methyl-5-oxo-2-pyrrolidine-4-hydroxyphenylthiocarboxylate], which minimal effective concentration [1, 6] is on record?
A: Its minimal effective concentration is 0.4 µM.

Q: What about the “Selective toxicity (B/A)” value [2] of the same compound?
A: Its value is 31.

Q: What about the MCC [3] of the same compound?
A: Its MCC is 12.5 µM.

Q: Which results are given for CNCCSC(=O)[C@]1([C@@H](O)C(C)C)NC(=O)[C@H](C)[C@@H]1O [Example 17, 3-hydroxy-2-(1-hydroxy-2-methylpropyl)-4-methyl-5-oxo-2-pyrrolidine-2-N-methylethanethiocarboxylate]?
A: minimal effective concentration [1, 6]: 0.8 µM; Selective toxicity (B/A) [2]: 8; MCC [3]: 6.25 µM

Q: Which results are given for CC(C)[C@H](O)[C@@]1(C(=O)SCCN(C)C)NC(=O)[C@H](C)[C@@H]1O [Example 18, 3-hydroxy-2-(1-hydroxy-2-methylpropyl)-4-methyl-5-oxo-2-pyrrolidine-2-N-dimethyl-ethanethiocarboxylate]?
A: minimal effective concentration [1, 6]: 0.2 µM; Selective toxicity (B/A) [2]: 31; MCC [3]: 6.25 µM

Q: Which minimal effective concentration [1, 6] does the source give for CC(C)[C@H](O)[C@@]1(C(=O)SCC(=O)O)NC(=O)[C@H](C)[C@@H]1O [Example 19, 3-hydroxy-2-(1-hydroxy-2-methylpropyl)-4-methyl-5-oxo-2-pyrrolidine-1-carboxymethylthiocarboxylate] here?
A: The minimal effective concentration was 0.4 µM.

Q: And the “Selective toxicity (B/A)” value [2]?
A: The value was 31.

Q: And the MCC [3]?
A: Its MCC is 12.5 µM.

Q: Which results are given for COC(=O)CSC(=O)[C@]1([C@@H](O)C(C)C)NC(=O)[C@H](C)[C@@H]1O [Example 20, 3-hydroxy-2-(1-hydroxy-2-methylpropyl)-4-methyl-5-oxo-2-pyrrolidine-methoxycarbonylthiocarboxylate]?
A: minimal effective concentration [1, 6]: 0.8 µM; Selective toxicity (B/A) [2]: 16; MCC [3]: 12.5 µM

Q: Which minimal effective concentration [1, 6] does the source give for COC(=O)CCSC(=O)[C@]1([C@@H](O)C(C)C)NC(=O)[C@H](C)[C@@H]1O [Example 21, 3-hydroxy-2-(1-hydroxy-2-methylpropyl)-4-methyl-5-oxo-2-pyrrolidine-methoxycarbonylethylthiocarboxylate] here?
A: Its minimal effective concentration is 0.2 µM.

Q: What about the “Selective toxicity (B/A)” value [2] of the same compound?
A: Its value is 8.

Q: And the MCC [3]?
A: The MCC was 1.56 µM.

Q: What does the source list for CC(C)[C@H](O)[C@@]1(C(=O)Sc2ccccn2)NC(=O)[C@H](C)[C@@H]1O [Example 22, 3-hydroxy-2-(1-hydroxy-2-methylpropyl)-4-methyl-5-oxo-2-pyrrolidine-2-pyridylthiocarboxylate]?
A: minimal effective concentration [1, 6]: 0.8 µM; Selective toxicity (B/A) [2]: 16; MCC [3]: 12.5 µM

Q: Which minimal effective concentration [1, 6] does the source give for CC(C)[C@H](O)[C@@]1(C(=O)Sc2ccncc2)NC(=O)[C@H](C)[C@@H]1O [Example 23, 3-hydroxy-2-(1-hydroxy-2-methylpropyl)-4-methyl-5-oxo-2-pyrrolidine-4-pyridylthiocarboxylate] here?
A: Its minimal effective concentration is 0.8 µM.

Q: And the “Selective toxicity (B/A)” value [2]?
A: The value was 16.

Q: What about the MCC [3] of the same compound?
A: Its MCC is 12.5 µM.

Q: With CC(C)[C@H](O)[C@@]1(C(=O)SCCC(N)C(=O)O)NC(=O)[C@H](C)[C@@H]1O (stereo partly shown) [Example 24] as the compound, how does the minimal effective concentration [1, 6] read?
A: Its minimal effective concentration is 1.56 µM.

Q: And the “Selective toxicity (B/A)” value [2]?
A: Its value is 16.

Q: And the MCC [3]?
A: The MCC was 25 µM.

Q: Which results are given for CC(SC(=O)[C@]1([C@@H](O)C(C)C)NC(=O)[C@H](C)[C@@H]1O)C(=O)NCC(=O)O (stereo partly shown) [Example 25, 2-S-propionylglycine-3-hydroxy-2-(1-hydroxy-2-methylpropyl)-4-methyl-5-oxo-2-pyrrolidinecarboxylate]?
A: minimal effective concentration [1, 6]: 1.56 µM; Selective toxicity (B/A) [2]: 8; MCC [3]: 12.5 µM

Q: What does the source list for CC(C)[C@H](O)[C@@]1(C(=O)SC[C@H](NC(=O)CC[C@H](N)C(=O)O)C(=O)NCC(=O)O)NC(=O)[C@H](C)[C@@H]1O [Example 26, glutathione-3-hydroxy-2-(1-hydroxy-2-methylpropyl)-4-methyl-5-oxo-2-pyrrolidinethiocarboxylate]?
A: minimal effective concentration [1, 6]: 0.8 µM; Selective toxicity (B/A) [2]: 31; MCC [3]: 25 µM

Q: What does the source list for CC(=O)N[C@@H](CSC(=O)[C@]1([C@@H](O)C(C)C)NC(=O)[C@H](C)[C@@H]1O)C(=O)O [lactacystin]?
A: neuritogenesis ([1]; mouse neuroblastoma cell line Neuro 2A): induce neuritogenesis; intracelluar cAMP level [4]: cause a transient increase in the intracelluar cAMP level; cytotoxicity ([5]; known compound): highly cytotoxic; neuritogenesis activity ([5]; known from literature): having neuritogenesis activity
